According to US6548543B1, “Remedies or preventives containing cyclopentenone compounds as the active ingredient” (Takara Shuzo Co., Ltd., priority 1998, dated 2003):

Tests used:
[1] = tested on: mixed spleen lymphocytes (BALB/c and C57BL/6); assay: Mixed lymphocyte reaction, 3H-thymidine uptake; type: cell-based, mouse; settings: 1 μM
Description: (2) Spleens were taken out from a BALB/c mouse (male, 6 weeks old, purchased from Japan SLC) and a C57BL/6 mouse (male, 6 weeks old, purchased from Japan SLC) and spleen lymphocytes were obtained according to the method as described in Example 11-(1). The concentration of each of the cell suspensions was adjusted to 2×10^6 cell/ml, 100 μl portions from respective suspensions were mixed together and seeded into a 96-well microtiter plate. Dipropionylcyclopentenone at a varying concentration was added to the wells other than the control well, and the plate was incubated at 37° C. for 4 days in a CO2 incubator. After incubation, 1 μCi of ^3H-thymidine was added to each well, and the plate was incubated for additional 1 day. The uptake into cells was measured using a liquid scintillation counter.
FIG. 8 illustrates the relationship between the concentration of dipropionylcyclopentenone and the amount of ^3H-thymidine uptake. The horizontal axis represents the dipropionylcyclopentenone concentration (μM) and the vertical axis represents ^3H-thymidine uptake (CPM). The open bar represents the ^3H-thymidine uptake when cells from one of the lines were used independently. The shaded bar represents the ^3H-thymidine uptake when cells from both of the lines were mixed together.

[2] = tested on: Ehrlich ascites carcinoma (EAC); assay: Ascitic cancer EAC, prolongation of survival; type: in vivo, ddY mouse; settings: 5 successive days; for 30-day survival number: groups of 8 mice
Description: (§1) (3) The carcinostatic activities of dipropionylcyclopentenone and diisobutyrylcyclopentenone against various ascitic cancers were examined using two types of cancer cells, Ehrlich ascites carcinoma (EAC) and Meth A, administered intraperitoneally or orally at a varying dose.
(§2) Dipropionylcyclopentenone or diisobutyrylcyclopentenone was intraperitoneally or orally administered for 5 successive days from the day after the transplantation with cancer cells. Injectable distilled water was administered to a control group in a similar manner. Average days of survival, prolongation rate and 30-day survival number were calculated for groups each consisting of 8 mice.

[3] = tested on: Meth A; assay: Ascitic cancer Meth A, prolongation of survival, 5 successive days; type: in vivo, BALB/c mouse; settings: for 30-day survival number: groups of 8 mice
Description: as §1, §2

[4] = tested on: spleen lymphocytes stimulated with Con A; assay: Lymphocyte blastogenesis stimulated with Con A, 3H-thymidine uptake; type: cell-based, ddY mouse; settings: 10 μM
Description: (1) A spleen was taken out from ddY mouse (male, 7 weeks old, purchased from Japan SLC), finely minced and suspended in RPMI-1640 medium containing 10% FCS (HyClone) to obtain a single cell suspension. The cell suspension was seeded into a plastic Petri dish and cultured at 37° C. for 2 hours in a CO2 incubator to remove adhesive cells adhered to the dish. Non-adhesive cells were used as spleen lymphocytes. 200 μl of suspension of the spleen lymphocytes at a cell concentration of 2×10^6/ml was seeded into each well of a 96-well microtiter plate. Dipropionylcyclopentenone at a varying concentration was added to each well other than the control well. Furthermore, 5 μg of Con A (Nacalai Tesque) was added to each well. The plate was incubated at 37° C. for 1 day in a CO2 incubator. After incubation, 1 μCi of ^3H-thymidine was added to each well. After culturing for additional 1 day, the uptake into cells was measured using a liquid scintillation counter.
FIG. 7 illustrates the relationship between the concentration of dipropionylcyclopentenone and the amount of ^3H-thymidine uptake. The horizontal axis represents dipropionylcyclopentenone concentration (μM) and the vertical axis represents the ^3H-thymidine uptake (CPM). The open bar represents the ^3H-thymidine uptake without stimulation.

[5] = tested on: adhesion between vascular endothelial cells and HL-60 cells; assay: Adhesion of HL-60 cells to TNF-α-stimulated vascular endothelial cells; type: cell-based, Human; settings: for Adhesion rate: TNF-α-stimulated endothelial cells
Description: Human vascular endothelial cells (sold by Sanko Junyaku) suspended in RPMI-1640 medium (Gibco) containing 10% FCS (HyClone) at a concentration of 1×10^5 cells/ml. 100 μl/well of the suspension was seeded into a 96-well microtiter plate.
100 U/ml of human recombinant TNF-α (Promega) was added to monolayer of vascular endothelial cells after incubation at 37° C. for 2 days in a 5% CO2 incubator. The plate was incubated 37° C. for 6 hours in a 5% CO2 incubator to prepare vascular endothelial cells stimulated with TNF-α.
On the other hand, cyclopentenone, GM or dipropionylcyclopentenone at a varying concentration was added to HL-60 cells suspended in RPMI-1640 medium containing 10% FCS at a concentration of 1×10^6 cells/ml. The cells were cultured at 37° C. for 3 hours in a 5% CO2 incubator. After cultivation, 5 μM of 5(-and-6)-carboxyfluorescein diacetate, succinimide ester (Molecular Probe) as a fluorescent agent was added thereto and reacted at 37° C. for 10 minutes. The cells were washed twice with RPMI-1640 medium and suspended in RPMI-1640 medium containing 10% FCS to prepare a suspension of fluorescence-labeled HL-60 cells at a concentration of 1×10^6 cells/ml.
100 μl/well of the fluorescence-labeled HL-60 cells were overlaid onto the vascular endothelial cells stimulated with TNF-α. Cyclopentenone, GM or dipropionylcyclopentenone at a varying concentration was added thereto. The plate was incubated at 37° C. for 20 minutes in a 5% CO2 incubator for adhesion reaction between vascular endothelial cells and HL-60 cells.
After the adhesion reaction, the plate was washed to remove non-adhesive cells. 1% Triton X (Nacalai Tesque) was added thereto to destroy adhesive cells. The fluorescence intensity was measured using filters for 485/22 nm (excitation) and 530/25 nm (emission).
The adhesion rate which represents the ratio of cells adhered to vascular endothelial cells was determined defining the fluorescence intensity for 1×10^5 fluorescence-labeled cells as 100%.

[6] = tested on: λ-carrageenan pedal edema; assay: Carrageenan induced pedal edema; type: in vivo, Lewis rats; settings: rat, 3 hours after carrageenan
Description: Lewis rats (male, 9 weeks old, weighing about 250 g) were purchased from Seac Yoshitomi.
Rats were fasted from 18 hours before the start of the experiments. Dipropionylcyclopentenone, dihexanoylcyclopentenone, di-2-hexenoylcyclopentenone, diisobutyrylcyclopentenone or dibenzoylcyclopentenone dissolved in olive oil (Nacalai Tesque) was orally administered to 4 rats per group at 1 or 10 mg/10 ml/kg.
100 μl of 1% λ-carrageenan (Wako Pure Chemical Industries) suspension in saline (Otsuka Pharmaceutical) was injected into the sole of right paw of a rat 0.5 hour after the administration of test substance to induce pedal edema. The volume of the right foot of the rat was measured using an instrument for measuring pedal volume (Ugo Basile) 3 hours after the injection with carrageenan. The measurements were expressed as the rate of increase calculated based on the volume of the right foot of each rat measured before the administration with carrageenan.
FIG. 5 illustrate the relationship between the amount of cyclopentenone derivative administered and the rate of increase in edema in foot. The horizontal axis represents the dose […] and the vertical axis represents the rate of increase (%).

In the case of CCC(=O)OC1C=CC(=O)C1OC(=O)CC (stereo not drawn), the “Inhibition of mixed lymphocyte reaction (FIG. 8)” value [1] is reported as “almost completely inhibited”, the “Average days of survival” value ([2]; intraperitoneal 10 mg/kg) is reported as 28.1 days and the Prolongation rate ([2]; intraperitoneal 10 mg/kg) is reported as >225%. For the same compound, the 30-day survival number ([2]; intraperitoneal 10 mg/kg) was 6, the “Average days of survival” value ([2]; oral 30 mg/kg) was 24.1 days and the Prolongation rate ([2]; oral 30 mg/kg) was >193%. The 30-day survival number ([2]; oral 30 mg/kg) was 4, the “Average days of survival” value ([3]; intraperitoneal 10 mg/kg) was 20.5 days and the Prolongation rate ([3]; intraperitoneal 10 mg/kg) was 174%. For the same compound, the 30-day survival number ([3]; intraperitoneal 10 mg/kg) was 0, the “Average days of survival” value ([3]; oral 30 mg/kg) was 17.3 days and the Prolongation rate ([3]; oral 30 mg/kg) was >147%. For the same compound, the 30-day survival number ([3]; oral 30 mg/kg) was 2, the “Inhibition of proliferation of mouse lymphocytes stimulated with Con A (FIG. 7)” value [4] was “almost completely inhibited” and the Adhesion rate ([5]; 0.1 μM) was 49.2%. The Adhesion rate ([5]; 1 μM) was 35.1%, the Adhesion rate ([5]; 10 μM) was 15.3% and the Adhesion rate ([5]; 100 μM) was 15.5%. For the same compound, the “Suppression of TNF-α-induced increase in adhesion rate (statement)” value ([5]; 10^−7 to 10^−4 M, dose-dependent) was “suppressed”, the “Suppression of edema in foot (FIG. 5)” value ([6]; 1 mg/kg oral) was “Tendency to suppress the edema in the foot” and the “Suppression of edema in foot (FIG. 5)” value ([6]; 10 mg/kg oral) was “significant suppression”.
